Six compounds from patent US20040058983A1, “Plan-derived and synthetic phenolic compounds and plant extracts, effective in the treatment and prevention of chlamydial infections” (priority 2000, published 2004) can be followed below.

Where two headings read alike, the source gives them in different places.

Data set [1] has as its system C. pneumoniae. Kind of data set: Direct anti-chlamydial effect of compounds and mixtures on C. pneumoniae (Example 5). To be noted: 50 μM. The data set is classed as cell-based. The method, then:
Direct Anti-Chlamydial Effect of Plant-Derived Phenolic Compounds, Certain Synthetic Compounds and Mixtures on C. pneumoniae
The concentration used was 50 μM.
(§1) The cultivated HL cells are infected with C. pneumoniae EB's. The EB's which have invaded the cell are changed into the metabolically active reticulate body (RB) which are dividing by binary fission in the endosome vacuole or inclusion.
(§2) After a certain time (about 72 hr) the C. pneumoniae RB's are condensing back into EB's, after which the inclusions are broken, the host cells are broken and the EB's are liberated. In this method the intention is to verify the inclusions before the breaking up of the host cells.
(§3) On the day preceding the infection the host cells are inoculated on a 24-well plate: the cells are harvested by trypsinisation, they are suspended in ca. 5 ml of the nutrition liquid and counted in a Burker's chamber. Each well are seeded using a concentration of 250000-400000 cells/well for cultivation. Before the addition of the cells to the well is if necessary round cover glass (diameter 13 mm) put for staining. Nutrition liquid is added so that the volume is 1 ml/well. On the following day the cells are infected with the desired bacterium.
(§4) Solution to be used in the infection and containing chlamydiae particles is mixed throughout. The old nutrition liquid is aspirated away. By the infection the inoculum which has been stored at −70° C. is diluted to an IFU concentration of ca. 10^3 so that the volume of the solution is at least 200 μl/well on a 24-well plate. The cells are infected by centrifuging at 1600 rpm (550×g)/1 hr. The nutrition medium is aspirated away and changed to a maintenance medium containing cyclohexamide and also containing the studied compound (DMSO concentration 0.2%), 1 ml/well. The cells are incubated in a 5% CO2 atmosphere at +35° C. The cells infected with C. pneumoniae are incubated for 3 days. After 2-3 days the maintenance medium is removed and the cells washed with 1×1 ml of PBS. To the wells 200 μl of SPG are added for further infection, harvested with a pipette tip and transferred into tubes. This is used for infecting new cells in the same way as above to test the inhibition of infectivity (chlamydiasidic effect).
(§5) The nutrition medium, which is above the cover glass left for staining, is aspirated away. The infected cells are fixed on the cover glass with methanol for 10 min. The cover glass is removed from the well and -transferred onto a suitable fluorescein-conjugated monoclonal antibody on Parafilm in a moist chamber with the cell-containing side down. The cover glass is incubated for 30 min at +37° C. and washed twice with PBS and once with water. Finally it is dried. The cover glass is put with the cell-containing side down on an object glass containing a fixative (e.g. Mounting medium). When viewed under the fluorescent microscope, cell culture specimens infacted with chlamydiae show a characteristic apple-green fluorescence of inclusions against a red counterstained background.

The test system of the next data set is Ca^2+ intake in the cell. Kind of data set: Effect of the compounds on the calcium influx (Ca2+ intake) to the cell. Conditions: compound 20 μg/ml; − = decrease, + = increase. The data set is classed as cell-based. The source says:
(§6) In the following Table I some of the preferred plant-derived phenolic compounds according to the present invention, the effect of the compounds on the calcium influx to the cell, the antioxidant effect as well as the chemical structure of the compounds are presented.

The subject of a further data set is C. trachomatis. The experiment in a line: Direct anti-chlamydial effect on C. trachomatis, cultivation in McCoy cells. The data set is classed as cell-based. To be noted: for inhibition at 0.5 µM / inhibition at 50 µM: Chlamydia trachomatis; for Effect on C. trachomatis (in words): pretreated host cells. As for the experimental part:
C. trachomatis, cultivation in McCoy cells. The test procedure otherwise the same as with C. pneumoniae.
(§7) As the host cell of C. pneumoniae in in vitro conditions HL cells are used. As the host cells of C. trachomatis in in vitro conditions McCoy cells often are used.
as §3, §4, §5

Data set [2] relates to C. pneumoniae K7 strain (clinical isolate). The experiment in a line: Direct anti-chlamydial effect (inhibition of formation of inclusions), HL host cells. The data set is classed as cell-based. To be noted: for Inhibition % of the DMSO control (pre-treated): host cells incubated 1 day with compound before infection.
A short description of data set [3]: Antioxidant effect, IC50 against DPPH. The data set is classed as biochemical. To be noted: read-out: IC50 [moles L^−1] against DPPH′.
Text: as §6

In data set [4] the test system is C. pneumoniae. Kind of data set: Inhibition of the infectivity (chlamydiasidic effect), re-infection of new cells. To be noted: for inhibition at 0.5 µM / inhibition at 50 µM: Chlamydia pneumoniae. The data set is classed as cell-based. As for the experimental part:
Inhibition of the Infectivity/C. pneumoniae
as §4, §5

A further data set deals with HL cells. The experiment in a line: Toxicity towards the host cells, Trypan blue staining, no infection. The data set is classed as cell-based, human. As for the experimental part:
The determination was performed as in the previous tests but without any infection. The viability was determined with Trypan blue staining.

For data set [5], the system named is C. pneumoniae K7 strain (clinical isolate). Kind of data set: Direct anti-chlamydial effect (inhibition of formation of inclusions), HL host cells. To be noted: for Inhibition of the growth of C. pneumoniae (in words): concentration of 0.5-50 μg; for Inhibition % of the DMSO control: formation of inclusions. The data set is classed as cell-based.
Text: The Direct Anti-Chlamydial Effect of Plant-Derived Phenolic Compounds (As Inhibition of Formation of Inclusions)/C. pneumoniae K7 Strain (Clinical Isolate)
as §1, §2, §7, §3, §4, §5

Where [6] appears, read: Chlamydia pneumoniae, read-out: Inhibition % of the DMSO control (pre-treated).
[7] abbreviates: Chlamydia pneumoniae, read-out: Inhibition % of the DMSO control.
The mark [8] stands for this setting: 0.5 μM, McCoy cells pre-treated 1 day.
The mark [9] stands for this setting: 50 μM, McCoy cells pre-treated 1 day.
Where [10] appears, read: 0.5 μM, host cells pre-treated 1 day.
The mark [11] stands for this setting: 50 μM, host cells pre-treated 1 day.

Consider `CCCCCCCCOC(=O)c1cc(O)c(O)c(O)c1` [Octyl gallate], for which the inhibition at 50 µM in the data set on C. pneumoniae [1] (Chlamydia pneumoniae, read-out: Inhibition %) came out at 100%; with C. trachomatis (50 μM, McCoy cells pre-treated 1 day, read-out: Inhibition % of the DMSO control (pre-treated)), 88%; in the data set on C. trachomatis (50 μM, McCoy cells, read-out: Inhibition % of the DMSO control) it was 14%; in data set [2] (setting [6]) it was 100%; in the data set on C. pneumoniae [4] (50 μM, host cells pre-treated 1 day, read-out: Inhibition % of the DMSO control (pre-treated)), 100%; in the data set on C. pneumoniae [4] (50 μM, read-out: Inhibition % of the DMSO control), 100%. The inhibition at 50 µM in data set [5] (setting [7]) came out at 100%. In addition, in the data set with Ca^2+ intake in the cell, the inhibition at 20 µg/mL turned out to be 92.2%. In addition, the inhibition at 0.5 µM with C. trachomatis (0.5 μM, McCoy cells pre-treated 1 day, read-out: Inhibition % of the DMSO control (pre-treated)) came out at 0%; with C. trachomatis (0.5 μM, McCoy cells, read-out: Inhibition % of the DMSO control), 0%; in data set [2] (setting [6]) it was 62%; in the data set on C. pneumoniae [4] (0.5 μM, host cells pre-treated 1 day, read-out: Inhibition % of the DMSO control (pre-treated)), 42%; in the data set on C. pneumoniae [4] (0.5 μM, read-out: Inhibition % of the DMSO control), 59%; in data set [5] (setting [7]), 82%. Also, the IC50 in data set [3] worked out at 17 µM. Moreover, the “Toxicity test HL-C” value is reported as 8.0% with HL cells (0.005 μM); 7.4% with HL cells (0.05 μM); 7.9% in the data set with HL cells (0.5 μM); 8.8% with HL cells (5 μM); 16.4% in the data set on HL cells (50 μM). Besides, the “Toxicity test HL-C (pre-treated)” value in the data set with HL cells (0.005 μM) is 7.0%; in the data set with HL cells (0.05 μM), 7.1%; in the data set on HL cells (0.5 μM) it was 5.0%; with HL cells (5 μM), 8.5%; in the data set with HL cells (50 μM), 14.8%. Also, in data set [5], the “Inhibition of the growth of C. pneumoniae (in words)” value (“Inhibition … (in words)” below) is given as “inhibited the growth”.

Turning to `O=c1c(O)c(-c2ccc(O)cc2O)oc2cc(O)cc(O)c12` [Morin], the Inhibition % in the data set with C. pneumoniae [1] turned out to be 100%. In the data set on Ca^2+ intake in the cell, the “Effect on Ca^2+ intake [%]” value was “+48.0%”. The “Inhibition % of the DMSO control” value in the data set with C. trachomatis (0.5 μM, McCoy cells) was determined as 0%; with C. trachomatis (50 μM, McCoy cells) it was 0%; with C. pneumoniae [4] (0.5 μM), 81%; in the data set on C. pneumoniae [4] (50 μM) it was 94%; in data set [5] (0.5 μM), 80%; in data set [5] (50 μM) it was 99%. Also, the “Inhibition % of the DMSO control (pre-treated)” value turned out to be 100% in the data set with C. trachomatis (setting [8]); 100% in the data set on C. trachomatis (setting [9]); 62% in data set [2] (0.5 μM); 96% in data set [2] (50 μM); 53% with C. pneumoniae [4] (setting [10]); 76% in the data set with C. pneumoniae [4] (setting [11]). Also, the “Effect on C. trachomatis (in words)” value in the data set with C. trachomatis is listed as “particularly effective”. The IC50 in data set [3] stood at 23.9 µM. Moreover, the “Toxicity test HL-C” value in the data set with HL cells (0.005 μM) is on record as 8.3%; in the data set on HL cells (0.05 μM), 9.0%; in the data set on HL cells (0.5 μM), 8.4%; in the data set with HL cells (5 μM), 8.3%; in the data set on HL cells (50 μM) it was 11.2%. Also, the “Toxicity test HL-C (pre-treated)” value in the data set with HL cells (0.005 μM) is given as 14.4%; with HL cells (0.05 μM) it was 8.1%; with HL cells (0.5 μM) it was 6.4%; with HL cells (5 μM) it was 12.7%; in the data set on HL cells (50 μM), 9.7%. Moreover, the “Inhibition … (in words)” value in data set [5] was “inhibited the growth”.

Take `COc1cc(O)c2c(=O)c(O)c(-c3ccc(O)c(O)c3)oc2c1` [Rhamnetin]: the Inhibition % in the data set with C. pneumoniae [1] worked out at 100%. The “Effect on Ca^2+ intake [%]” value in the data set with Ca^2+ intake in the cell is “+6.63%”. Further, the “Inhibition % of the DMSO control” value in the data set with C. trachomatis (0.5 μM, McCoy cells) turned out to be 0%; in the data set with C. trachomatis (50 μM, McCoy cells), 0%; in the data set with C. pneumoniae [4] (0.5 μM) it was 100%; with C. pneumoniae [4] (50 μM), 100%; in data set [5] (0.5 μM), 73%; in data set [5] (50 μM) it was 99%. Besides, the “Inhibition % of the DMSO control (pre-treated)” value in the data set on C. trachomatis (setting [8]) stood at 17%; in the data set on C. trachomatis (setting [9]), 100%; in data set [2] (0.5 μM), 50%; in data set [2] (50 μM), 59%; in the data set with C. pneumoniae [4] (setting [10]) it was 75%; in the data set with C. pneumoniae [4] (setting [11]) it was 67%. In addition, in the data set with C. trachomatis, the “Effect on C. trachomatis (in words)” value was “particularly effective”. Also, in data set [3], the IC50 was determined as 12.1 µM. Moreover, the “Toxicity test HL-C” value in the data set on HL cells (0.005 μM) was 10.9%; in the data set on HL cells (0.05 μM), 9.5%; in the data set on HL cells (0.5 μM), 10.0%; with HL cells (5 μM) it was 9.6%; in the data set with HL cells (50 μM), 15.7%. The “Toxicity test HL-C (pre-treated)” value with HL cells (0.005 μM) was found to be 6.6%; in the data set with HL cells (0.05 μM) it was 7.6%; in the data set with HL cells (0.5 μM) it was 10.6%; in the data set with HL cells (5 μM), 8.0%; in the data set with HL cells (50 μM), 16.9%. The “Inhibition … (in words)” value in data set [5] was “inhibited the growth”.

Turning to `C[C@@H]1O[C@@H](Oc2c(-c3ccc(O)c(O)c3)oc3cc(O)cc(O)c3c2=O)[C@H](O)[C@H](O)[C@H]1O` [Quercitrin], in the data set on C. pneumoniae [1], the Inhibition % worked out at 50%. The “Effect on Ca^2+ intake [%]” value with Ca^2+ intake in the cell is reported as “+20.1%”. Also, the concentration for half-maximal inhibition (IC50) in data set [3] came to 12.9 µM.

Turning to `O=c1cc(-c2ccc(O)c(O)c2)oc2cc(O[C@@H]3O[C@H](CO)[C@@H](O)[C@H](O)[C@H]3O)cc(O)c12` [Luteolin-7-glucoside], in the data set on C. pneumoniae [1], the Inhibition % is 23%. Also, the “Effect on Ca^2+ intake [%]” value with Ca^2+ intake in the cell is reported as −16.3%. Further, the IC50 in data set [3] stood at 10.7 µM.

On to `C[C@@H]1O[C@@H](OC[C@H]2O[C@@H](Oc3c(-c4ccc(O)c(O)c4)oc4cc(O)cc(O)c4c3=O)[C@H](O)[C@@H](O)[C@@H]2O)[C@H](O)[C@H](O)[C@H]1O` [Rutin], for which the Inhibition % with C. pneumoniae [1] is 46%. In addition, the “Effect on Ca^2+ intake [%]” value in the data set on Ca^2+ intake in the cell is listed as −3.88%. Besides, the IC50 in data set [3] came to 10.2 µM.
